The results in this text go back to patent publication US20070208077A1, “Adiponectin Enhancer” (priority 2004, published 2007).

Several values for one entry are separate records, joined by “and”; a condition that tells them apart may be missing. Equal values may be shown once.

For one experiment, the system named is TNFα mRNA. The experiment can be described thus: Cellular TNFα mRNA level by quantitative RT-PCR in 3T3-L1 adipocytes. It counts as cell-based, mouse. Conditions: sesamin 50 μM, 8 days of culturing, vs control. As for the experimental part: (§1) Mouse-derived 3T3-L1 cells were treated for 42 hours in culturing solution containing insulin, dexamethasone and isobutylxanthine, for differentiation to adipocytes. The culture solution was removed and immediately combined with sesamin-free culturing solution (control) or culturing solution containing sesamin at a final concentration of 50 μM (sesamin), and after culturing for 48 hours, the culture solution was exchanged and culturing was continued for 6 days. The cell culturing was carried out in an incubator controlled to 5% CO2 gas-95% air at a temperature of 37° C. The cellular mRNA levels for adiponectin and TNFα were measured by quantitative RT-PCR using CYBR-Green (BMC Biotechnol. 3, 18, 2003).

The test system of another experiment is Zucker fatty rats. The experiment can be described thus: Plasma adiponectin concentration of Zucker fatty rats, ELISA. It counts as in vivo, rat. Conditions: male Zucker fatty rats, 0.1% sesamin in AIN-93G feed for four weeks, after overnight starving; control feed 6.06 ± 0.48. As for the experimental part: The rats were divided into two groups with five rats per group, with the first group being freely given AIN-93G (growth stage feed, product of Nihon Crea) as the control group and the second group being freely given feed comprising 0.1% sesamin added to AIN-93G, for a four week period. After four weeks, blood was sampled after overnight starving, and the plasma was separated. The plasma adiponectin concentrations were assayed using an Enzyme-Linked ImmunoSorbent Assay (Mouse/Rat Adiponectin ELISA Kit, product of Otsuka Pharmaceutical).
A general note: An ELISA detects its analyte on a solid surface through an enzyme-linked reagent.

The next experiment relates to 3T3-L1 cells. The experiment can be described thus: Effect of inducing size reduction of adipocytes in pre-differentiated 3T3-L1 cell cultures. It counts as cell-based, mouse. Conditions: sesamin 50 μM, 3T3-L1 cells pre-differentiated to adipocytes, 8 days of culturing, vs control.
In a further experiment the test system is adiponectin. The experiment can be described thus: Adiponectin production by 3T3-L1 adipocytes, ELISA of culture solution. It counts as cell-based, mouse. The settings on record: sesamin 50 μM, vs control. As for the experimental part:
as §1, with “The” for “The cellular mRNA levels for”, “concentrations in the culture solutions” for “and TNFα”, “Enzyme-Linked ImmunoSorbent Assay (Mouse/Rat Adiponectin ELISA Kit, Otsuka Pharmaceutical).” for “quantitative RT-PCR using CYBR-Green (BMC Biotechnol. 3, 18, 2003).”

Another experiment has as its system adiponectin mRNA. Nature of the experiment: Cellular adiponectin mRNA level by quantitative RT-PCR in 3T3-L1 adipocytes. Conditions: sesamin 50 μM, 8 days of culturing. It counts as cell-based, mouse. The protocol:
as §1

In the case of `c1cc2c(cc1[C@H]1OC[C@H]3[C@@H]1CO[C@@H]3c1ccc3c(c1)OCO3)OCO2` [sesamin], the “TNFα mRNA levels in the adipocytes” value in the experiment with TNFα mRNA was “decreased”. The Plasma adiponectin with Zucker fatty rats was 6.53 µg/mL and 6.53 ± 0.54 µg/mL. In addition, the “influence on adipocyte size” value with 3T3-L1 cells was “numerous small adipocytes”. Further, the “increase of adiponectin concentration in the cell cultured medium” value in the experiment on adiponectin worked out at 1.6 fold. In addition, in the experiment on adiponectin mRNA, the “adiponectin mRNA levels in the adipocytes, increase with respect to the control group” value is reported as 7 fold.
